Columns and labels:
[1] = Liver toxicity (plasma ALT activity, liver sections); format: in vivo; settings: 10 mg/kg/day p.o.; for liver toxicity (ALT activities, liver sections assessed by pathologist): mice
From the text: Toxic compounds can induce livers to release enzymes called serum transaminases, such as alanine aminotransferase (ALT). The assay for ALT is the most universally accepted clinical laboratory marker used to evaluate hepatic toxicity induced by pharmaceuticals [See “Serum Transferase Elevations as Indicators or Hepatic Injury Following the Administration of Drugs”, Reg. Tox. Pharm., volume 27, 1998, pp 119-130, by D. E. Amacher]. At the end of the treatment period, blood was drawn from each animal. Plasma was separated by centrifugation and stored at −70° C. The activity of ALT was determined in aliquots of plasma by standard spectrophotometric enzymatic techniques which were based upon the reduction of pyruvate by lactate dehydrogenase [See “Aged Mice are Resistant to the Hepatotoxic Effects of Endotoxin and Galactosamine” in Exp. Mol. Pathology, volume 59, 1993, pp 27-37]. The method measures the disappearance of NADH from time of incubation at 37° C. The activities have been expressed in μm/Liter/min (Table VI). Two different amounts of plasma were utilized in each assay to assure the measurement of the maximum rate.
There were no statistically significant differences between the ALT activities in the different treatment groups (Table VI, t-test: P>0.05). All numbers were in the normal range (63 to 307 μm/Liter/Min) of ALT values for the species of mouse utilized. All liver sections were assessed by an experienced pathologist in a blinded manner. The degree of necrosis was very mild in all animals.

[2] = Monitoring of xenograph mice for signs of toxicity; format: in vivo; settings: 10 mg/kg/day (MTD for t-RA)
Protocol: Then OVCAR-3 cells in log phase growth were harvested by trypsinization, resuspended in RPMI culture medium, and centrifuged at 3000 rpm for 10 min. The pellets were then resuspended in RPMI culture medium at a concentration of 7×10^6 cells/mL before implantation into mice. Animals were injected with 3.5×10^6 cells into right scapular region with a 24-gauge needle/1 mL tuberculin syringe (Becton Dickinson, Rutherford, N.J.). Twenty four hours after tumor implantation, animals were randomized into four treatment groups of 5 animals each. Retinoids were administered daily p.o. beginning 35 days after tumor implantation with a 20-gauge intragastric feeding tube (Popper & Sons, New Hyde Park, N.Y.), 5 days/week, at doses of 10 mg/kg/day in 0.1 mL of super refined sesame oil (Corda, Inc., Parisppany, N.J.). Tumors were measured with calipers weekly, and tumor volumes were calculated using the formula: volume=length×width×heigth. Animal weights and clinical signs of overall health status and cutaneous toxicities were recorded weekly.

[3] = tested on: ovarian carcinoma cell line OVCAR-3; test: Apoptosis in organotypic culture, TUNNEL assay; format: cell-based, human; settings: 1 μM; for % APOPTOSIS of OVCAR-3 cells: two weeks, organotypic culture, TUNNEL assay; for inducing apoptosis in the OVCAR-3 cell line, comparison in words: Table V
Protocol: In another experiment, the ovarian carcinoma cell line OVCAR-3 was grown in organotypic culture. After one week, the cultures were treated with 1 μM solution of heteroarotinoids 11, 12, and 13, or with the same volume of DMSO (solvent), for two weeks. Both 9-c-RA and 4-HPR were used as controls. At the end of the time, the cultures were fixed in sectioned, and stained with the TUNNEL assay to detect apoptosing cells. An experienced pathologist quantitated the percent of apoptosing cells by light microscopic examination.

[4] = tested on: OVCAR-3 cisplatin-resistant ovarian carcinoma cell line; test: Cisplatin chemosensitization (MTS assay); format: cell-based, human; settings: 1 μM retinoid 3 days before and 3 days after one hour of cisplatin (40 μM or 1 μg/ml)
Protocol: The compounds of the present invention also find advantage over the standard retinoids, including retinoic acid and 4-HPR as chemosensitization agents. In another study, ovarian carcinoma cultures, including cisplatin-resistant cultures, were trypsinized and plated in microtiter plates at a concentration of 1000 cells per well. A series of natural and synthetic retinoids, including exemplar heteroarotinoids with the novel three atom linker, at a concentration of 5 μM were added to triplicate wells in the microtiter plates twenty-four hours later. The same volume of DMSO used to administer the compounds were added to the control cultures. After three days of treatment, a range of cisplatin concentrations were added to the wells. After one hours of exposure, the media and retinoid drugs were replenished. Cell survival was quantitated using the MTS assay (Promega). […] Thus, the present invention contemplates the process of sensitizing cells to cisplatin therapy and combined cisplatin and radiation therapy using the inventive heteroarotinoids.
In this regard, the cisplatin resistant OVCAR-3 cell line was pre-treated with a concentration of 1 μM of the indicated retinoids for 3 days, and then exposed to cisplatin at the concentration detected in tumors of treated patients (40 μM or 1 μg/ml). […] After one hour of cisplatin exposure, the cisplatin was removed and the cultures were grown in the presence of 1 μM of the indicated retinoids for an additional 3 days. The number of living cells present was then determined using the MTS (3-(4,5-dimethylthiazol-2-yl)-5-(3-carboxymethoxyphenyl)-2H-tetrazolium inner salt) assay (Promega). In the MTS assay, metabolically active cells reduce the MTS compound to an aqueous soluble formazan resulting in an absorbance that can be measured at 490 nm (Promega Technical Bulletin No.169). The optical density at 490 nm (OD490) of the MTS-treated cultures is then determined and used as a measure of the number of living cells in each well. The percent growth is determined by dividing the OD490 of the treated cultures by the OD490 of the untreated control cultures.

OVCAR-3 = test: Growth inhibition assay (SRB); format: cell-based, human; settings: 10 μM, three-day treatment, Table I
From the text: (§1) To illustrate the general and useful biological activity of the heteroarotinoids described in this invention, selected compounds were screened for ability to inhibit the growth of three ovarian cancerous cell lines, namely Caov, SKOV, and OVCAR cell lines, three cervical cell lines (Cervix HPV-Wt p53, Cervix HPV-Mut p53, and Cervix HPV-Mut p53), and one vulvar (Vulvar HPV-Mut p53) cell line as shown in Tables I-III. The cell lines and the technology have been previously described [See Journal of Medicinal Chemistry, 1999, Vol. 42, pages 3602-3614 in an article entitled “Synthesis, Structure-Activity Relationships, and RAR γ-Ligand Interactions of Nitrogen Heteroarotinoids” by A. Dhar, S. Liu, J. Klucik, K. D. Berlin, M. M. Madler, S. Lu, R. T. Ivey, D. Zacheis, C. W. Brown, E. C. Nelson, P. J. Birckbichler, and D. M. Benbrook], but the general technique was slightly modified. Cultures of the cancerous cells were plated in volumes of 150 μL in 96-well microtiter plates at concentrations of 2000-4000 cells/well, depending upon the cell line used. Retinoids were added the next day at 4× the concentrations in 50 μL of media resulting in 1, 2, 3, 4, 5, 7, and 10 μM final concentrations of each retinoid. Control cultures were treated with the same volume of DMSO. After 3 days of treatment, the cell density in each well was determined by fixing the cells in trichloroacetic acid followed by staining the cytoplasmic proteins with sulforhoamine B (SRB). After rinsing, the SRB was solubilized in Tris-HCl, and the optical density of each culture was determined with a MR600 microtiter plate reader. Each experiment was performed in triplicate, and the three values of each treatment were averaged. The average OD of the treated cultures was divided by that of the control cultures treated with solvent alone. To determine the percent growth inhibition, this ratio was subtracted from 1 and multiplied by 100. Tables I, II, and III contain representative examples of the inhibition of growth by the inventive heteroarotinoids of the cancerous cell lines investigated at two independent concentrations (1 and 10 μM). As standards for comparison purposes, trans-retinoic acid (t-RA), 9-cis-retinoic acid (9-c-RA), 13-cis-retinoic acid (13-c-RA), and […] (4-HPR) were added in parallel experiments along with the heteroarotinoids and with dimethyl sulfoxide (DMSO) as the solvent. For convenience, the data in Tables II and III are duplicated and ranked according to tumor type.

CAOV-3 = test: Growth inhibition assay (SRB); format: cell-based; settings: 10 μM, three-day treatment, Table I
From the text: as §1

C-33A = test: Growth inhibition assay (SRB); format: cell-based; settings: 10 μM, three-day treatment, Table I
From the text: as §1

For `CCOC(=O)c1ccc(NC(=O)Nc2ccc3c(c2)C(C)(C)CC(C)(C)S3)cc1` [heteroarotinoid 13], the “liver toxicity (ALT activities, liver sections assessed by pathologist)” value [1] was “do not appear to induce significant liver toxicity”, the “toxicity to the skin, bones, or liver” value [2] was “did not cause toxicity” and the “% APOPTOSIS of OVCAR-3 cells” value [3] was 80%. The “inducing apoptosis in the OVCAR-3 cell line, comparison in words” value [3] was “as effective as 4-HPR”, the “chemosensitization to cisplatin (percent growth, FIG. 2)” value [4] was “effective” and the “Percentage growth inhibition, OVCAR-3 (Ovarian HPV− Mut p53)” value (OVCAR-3) was 77%. For the same compound, the “Percentage growth inhibition, CAOV-3 (Ovarian HPV− Mut p53)” value (CAOV-3) was 98% and the “Percentage growth inhibition, C-33A (Cervix HPV− Mut p53)” value (C-33A) was 76%.

In the case of `CC1(C)CC(C)(C)c2cc(NC(=S)Nc3ccc([N+](=O)[O-])cc3)ccc2S1` [heteroarotinoid 11], the “liver toxicity (ALT activities, liver sections assessed by pathologist)” value [1] is reported as “do not appear to induce significant liver toxicity”, the “ALT ACTIVITY” value ([1]; plasma of mice at end of treatment period) is reported as 118.5 ± 153.4 μm/Liter/Min and the “toxicity to the skin, bones, or liver” value [2] is reported as “did not cause toxicity”. For the same compound, the “% APOPTOSIS of OVCAR-3 cells” value [3] was 95%, the “inducing apoptosis in the OVCAR-3 cell line, comparison in words” value [3] was “as effective as 4-HPR” and the “chemosensitization to cisplatin (percent growth, FIG. 2)” value [4] was “effective”. The “Percentage growth inhibition, OVCAR-3 (Ovarian HPV− Mut p53)” value (OVCAR-3) was 94%, the “Percentage growth inhibition, CAOV-3 (Ovarian HPV− Mut p53)” value (CAOV-3) was 80% and the “Percentage growth inhibition, C-33A (Cervix HPV− Mut p53)” value (C-33A) was 87%.

— patent US6586460B1, “Heteroarotinoids containing urea or thiourea linker” (The Board of Regents for Oklahoma State University, priority 2001, dated 2003)
